For 28 compounds, pest or weed control and inhibition of growth results are on record in patent publication US11180462B2, “Microbiocidal oxadiazole derivatives” (SYNGENTA PARTICIPATIONS AG, priority 2015, dated 2021).

Experiment [1] relates to Puccinia recondita f. Sp. Tritici. As to the kind of experiment: Fungicidal activity against Puccinia recondita f. sp. tritici / wheat / leaf disc preventative (brown rust). It is filed as in vivo. Particulars: foliar, 200 ppm in the applied formulation, wheat leaf segments, preventative, compared to untreated control leaf disks, read-out: disease control. As for the experimental part:
Leaf disks or leaf segments of various plant species are cut from plants grown in a greenhouse. The cut leaf disks or segments are placed in multiwell plates (24-well format) onto water agar. The leaf disks are sprayed with a test solution before (preventative) or after (curative) inoculation. Compounds to be tested are prepared as DMSO solutions (max. 10 mg/ml) which are diluted to the appropriate concentration with 0.025% Tween20 just before spraying. The inoculated leaf disks or segments are incubated under defined conditions (temperature, relative humidity, light, etc.) according to the respective test system. A single evaluation of disease level is carried out 3 to 14 days after inoculation, depending on the pathosystem. Percent disease control relative to the untreated check leaf disks or segments is then calculated.
Fungicidal Activity Against Puccinia recondita f. Sp. Tritici/Wheat/Leaf Disc Preventative (Brown Rust)
Wheat leaf segments cv. Kanzler were placed on agar in multiwell plates (24-well format) and sprayed with the formulated test compound diluted in water. The leaf disks were inoculated with a spore suspension of the fungus 1 day after application. The inoculated leaf segments were incubated at 19° C. and 75% relative humidity (rh) under a light regime of 12 hours light/12 hours darkness in a climate cabinet and the activity of a compound was assessed as percent disease control compared to untreated when an appropriate level of disease damage appears in untreated check leaf segments (7 to 9 days after application).
The following compounds at 200 ppm in the applied formulation give at least 80% disease control in this test when compared to untreated control leaf disks under the same conditions, which show extensive disease development.

In experiment [2] the test system is Glomerella lagenarium (Colletotrichum lagenarium). As to the kind of experiment: Fungicidal activity against Glomerella lagenarium (Colletotrichum lagenarium) liquid culture / cucumber / preventative (anthracnose). Particulars: Colletotrichum orbiculare; 20 ppm in the applied formulation; liquid culture (PDB), growth inhibition measured photometrically after 3 to 4 days; compared to untreated control; read-out: disease control. It is filed as cell-based. A digest of the protocol: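 Photometric read-out of fungal growth after 2–7 days, expressed as percent antifungal activity versus untreated check. Cryo-stored conidia in PDB; compound at 20 ppm; dark, 24 °C, 96% RH.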

As to `O=CNC1(C(=O)N(Cc2ccc(-c3noc(C(F)(F)F)n3)cc2)CC2CCCO2)CC1` (stereo not shown) [Compound 1.441, 1-formamido-N-(tetrahydrofuran-2-ylmethyl)-N-[[4-[5-(trifluoromethyl)-1,2,4-oxadiazol-3-yl]phenyl]methyl]-cyclopropane-carboxamide], the pest or weed control at 200 ppm in experiment [1] was at least 80%. Same read-out and setting: for `CON(Cc1ccc(-c2noc(C(F)(F)F)n2)cc1)C(=O)C1C(C=C(Cl)Cl)C1(C)C` (stereo not shown) [Compound 1.62, 3-(2,2-dichlorovinyl)-N-methoxy-2,2-dimethyl-N-[[4-[5-(trifluoromethyl)-1,2,4-oxadiazol-3-yl]phenyl]methyl]-cyclopropane-carboxamide] the value was at least 80%; for `CC(=O)NCC(=O)N(Cc1ccc(-c2noc(C(F)(F)F)n2)cc1)OCc1ccc(Cl)cc1` [Compound 1.552, 2-ace tamido-N-[(4-chlorophenyl)-methoxy]-N-[[4-[5-(trifluoromethyl)-1,2,4-oxadiazol-3-yl]phenyl]methyl]-acetamide], at least 80%. Same read-out and setting: as for `C#CCN(Cc1ccc(-c2noc(C(F)(F)F)n2)cc1)C(=O)Cc1ccccc1` [Compound 1.186, 2-phenyl-N-prop-2-ynyl-N-[[4-[5-(trifluoromethyl)-1,2,4-oxadiazol-3-yl]phenyl]methyl]-acetamide], the figure is at least 80%. In the case of `O=C(C=CC(F)(F)F)N(Cc1ccc(-c2noc(C(F)(F)F)n2)cc1)CC1CCCO1` (stereo not shown) [Compound 1.425, 4,4,4-trifluoro-N-(tetrahydrofuran-2-ylmethyl)-N-[[4-[5-(trifluoromethyl)-1,2,4-oxadiazol-3-yl]phenyl]methyl]-but-2-enamide], in experiment [2], the inhibition of growth at 20 ppm was at least 80%. Regarding `C#CC(=O)N(OC)C(C)c1ccc(-c2noc(C(F)(F)F)n2)cc1` (stereo not shown) [Compound 1.269, N-methoxy-N-[1-[4-[5-(trifluoromethyl)-1,2,4-oxadiazol-3-yl]phenyl]ethyl]prop-2-ynamide], the inhibition of growth at 20 ppm in experiment [2] is at least 80%. In the case of `CCCON(Cc1ccc(-c2noc(C(F)(F)F)n2)cc1)C(=O)C1CCCC1` [Compound 1.290, N-propoxy-N-[[4-[5-(trifluoromethyl)-1,2,4-oxadiazol-3-yl]phenyl]methyl]-cyclopentane-carboxamide], the inhibition of growth at 20 ppm in experiment [2] is at least 80%.

Take `C#CCN(Cc1ccc(-c2noc(C(F)(F)F)n2)cc1)C(=O)Cc1ccccc1OC` [Compound 1.179, 2-(2-methoxyphenyl)-N-prop-2-ynyl-N-[[4-[5-(trifluoromethyl)-1,2,4-oxadiazol-3-yl]phenyl]methyl]-acetamide]: in experiment [2], the inhibition of growth at 20 ppm is at least 80%. The same measure, in the same setting: for `O=C(C1CC1c1ccccc1)N(Cc1ccc(-c2noc(C(F)(F)F)n2)cc1)C1CC1` (stereo not shown) [Compound 1.98, N-cyclopropyl-2-phenyl-N-[[4-[5-(trifluoromethyl)-1,2,4-oxadiazol-3-yl]phenyl]methyl]-cyclopropane-carboxamide] the value was at least 80%; for `CCC(C)N(Cc1ccc(-c2noc(C(F)(F)F)n2)cc1)C(=O)CC(C)C` (stereo not shown) [Compound 1.380, 3-methyl-N-sec-butyl-N-[[4-[5-(trifluoromethyl)-1,2,4-oxadiazol-3-yl]phenyl]methyl]-butanamide], at least 80%; for `CCCCC(=O)N(OC)C(C)c1ccc(-c2noc(C(F)(F)F)n2)cc1` (stereo not shown) [Compound 1.281, N-methoxy-N-[1-[4-[5-(trifiuoromethyl)-1,2,4-oxadiazol-3-yl]phenyl]ethyl]-pentanamide], at least 80%. Same read-out and setting: as for `CON(Cc1ccc(-c2noc(C(F)(F)F)n2)cc1)C(=O)C(F)(F)F` [Compound 1.780, 2,2,2-trifluoro-N-methoxy-N-[[4-[5-(trifluoromethyl)-1,2,4-oxadiazol-3-yl]phenyl]methyl]-acetamide], the figure is at least 80%. Still for that read-out and setting: as for `O=C(CC1CC1)N(Cc1ccc(-c2noc(C(F)(F)F)n2)cc1)CC1CC1` [Compound 1.211, 2-cyclopropyl-N-(cyclopropylmethyl)-N-[[4-[5-(trifluoromethyl)-1,2,4-oxadiazol-3-yl]phenyl]methyl]-acetamide], the figure is at least 80%. With `CON(Cc1ccc(-c2noc(C(F)(F)F)n2)cc1)C(=O)Cc1ccc(C(F)(F)F)cc1` [Compound 1.68, N-methoxy-N-[[4-[5-(trifluoromethyl)-1,2,4-oxadiazol-3-yl]phenyl]methyl]-2-[4-(trifluoromethyl)-phenyl]acetamide], the inhibition of growth at 20 ppm in experiment [2] was at least 80%. Regarding `CON(C(=O)CC(F)(F)F)C(C)c1ccc(-c2noc(C(F)(F)F)n2)cc1` (stereo not shown) [Compound 1.277, 3,3,3-trifluoro-N-methoxy-N-[1-[4-[5-(trifluoromethyl)-1,2,4-oxadiazol-3-yl]phenyl]ethyl]-propanamide], the inhibition of growth at 20 ppm in experiment [2] is at least 80%.

Consider `CON(C(=O)CC1CC1)C(C)c1ccc(-c2noc(C(F)(F)F)n2)cc1` (stereo not shown) [Compound 1.256, 2-cyclopropyl-N-methoxy-N-[1-[4-[5-(trifluoromethyl)-1,2,4-oxadiazol-3-yl]phenyl]ethyl]-acetamide], for which, in experiment [2], the inhibition of growth at 20 ppm was at least 80%. Same read-out and setting: for `CCCON(Cc1ccc(-c2noc(C(F)(F)F)n2)cc1)C(=O)CC(F)(F)F` [Compound 1.318, 3,3,3-trifluoro-N-propoxy-N-[[4-[5-(trifluoromethyl)-1,2,4-oxadiazol-3-yl]phenyl]methyl]-propanamide] the value was at least 80%; for `COc1ccc(C2(C(=O)N(Cc3ccc(-c4noc(C(F)(F)F)n4)cc3)OC)CC2)cc1` [Compound 1.74, N-methoxy-1-(4-methoxyphenyl)-N-[[4-[5-(trifluoromethyl)-1,2,4-oxadiazol-3-yl]phenyl]methyl]-cyclopropane-carboxamide], at least 80%; for `CC1CC1C(=O)N(Cc1ccc(-c2noc(C(F)(F)F)n2)cc1)OCC=C(Cl)Cl` (stereo not shown) [Compound 1.536, N-(3,3-dichloroallyloxy)-2-methyl-N-[[4-[5-(trifluoromethyl)-1,2,4-oxadiazol-3-yl]phenyl]methyl]-cyclopropane-carboxamide], at least 80%. Turning to `CCCC(=O)N(Cc1ccc(-c2noc(C(F)(F)F)n2)cc1)OCC=C(Cl)Cl` [Compound 1.541, N-(3,3-dichloroallyloxy)-N-[[4-[5-(trifluoromethyl)-1,2,4-oxadiazol-3-yl]phenyl]methyl]-butanamide], the inhibition of growth at 20 ppm in experiment [2] was at least 80%.

In the case of `COCC(=O)N(Cc1ccc(-c2noc(C(F)(F)F)n2)cc1)OCC=C(Cl)Cl` [Compound 1.535, N-(3,3-dichloroallyloxy)-2-methoxy-N-[[4-[5-(trifluoromethyl)-1,2,4-oxadiazol-3-yl]phenyl]methyl]-acetamide], the inhibition of growth at 20 ppm in experiment [2] was at least 80%.

Take `CCCCOC(=O)N(Cc1ccc(-c2noc(C(F)(F)F)n2)cc1)OC` [Compound 2.12, butyl N-methoxy-N-[[4-[5-(trifluoromethyl)-1,2,4-oxadiazol-3-yl]phenyl]methyl]-carbamate]: the inhibition of growth at 20 ppm in experiment [2] was at least 80%. In the case of `CCC(C)N(Cc1ccc(-c2noc(C(F)(F)F)n2)cc1)C(=O)C1CC1C` (stereo not shown) [Compound 1.385, 2-methyl-N-sec-butyl-N-[[4-[5-(trifluoromethyl)-1,2,4-oxadiazol-3-yl]phenyl]methyl]-cyclopropane-carboxamide], the inhibition of growth at 20 ppm in experiment [2] is at least 80%. With `CCCCON(Cc1ccc(-c2noc(C(F)(F)F)n2)cc1)C(=O)C1CCC1` [Compound 1.638, N-butoxy-N-[[4-[5-(trifluoromethyl)-1,2,4-oxadiazol-3-yl]phenyl]methyl]-cyclobutane-carboxamide], in experiment [2], the inhibition of growth at 20 ppm is at least 80%. On the same count and under the same terms, as for `CCC(C)N(Cc1ccc(-c2noc(C(F)(F)F)n2)cc1)C(=O)C=CC(F)(F)F` (stereo not shown) [Compound 1.382, 4,4,4-trifluoro-N-sec-butyl-N-[[4-[5-(trifluoromethyl)-1,2,4-oxadiazol-3-yl]phenyl]methyl]but-2-enamide], the figure is at least 80%. Still for that read-out and setting: as for `CC=C(C)C(=O)N(OC)C(C)c1ccc(-c2noc(C(F)(F)F)n2)cc1` (stereo not shown) [Compound 1.255, N-methoxy-2-methyl-N-[1-[4-[5-(trifluoromethyl)-1,2,4-oxadiazol-3-yl]phenyl]ethyl]but-2-enamide], the figure is at least 80%; as for `CCCON(Cc1ccc(-c2noc(C(F)(F)F)n2)cc1)C(=O)C1=CCCC1` [Compound 1.291, N-propoxy-N-[[4-[5-(trifiuoromethyl)-1,2,4-oxadiazol-3-yl]phenyl]methyl]-cyclopentene-1-carboxamide], at least 80%; as for `CC=CC(=O)N(Cc1ccc(-c2noc(C(F)(F)F)n2)cc1)OCCC` [Compound 1.285, N-propoxy-N-[[4-[5-(trifluoromethyl)-1,2,4-oxadiazol-3-yl]phenyl]methyl]but-2-enamide], at least 80%.
